Here are results for 27 compounds from publication PMC6321475, “Synthesis and Evaluation of the 4-Substituted 2-Hydroxy-5-Iodochalcones and Their 7-Substituted 6-Iodoflavonol Derivatives for Inhibitory Effect on Cholinesterases and β-Secretase” (International Journal of Molecular Sciences, 2018).

The IC50 is the point on the concentration scale where inhibition reaches its midpoint. Low readings indicate greater potency in that assay, high ones weaker potency in that assay.

SMILES strings stand for the structures. Where two headings read alike, the source gives them in different places. Some results are limits rather than exact numbers.

Holding throughout (assay type): biochemical
Assay [1] deals with acetylcholinesterase (AChE) (Homo sapiens, UniProt P22303). Briefly: biochemical.
For assay [2], the target named is butyrylcholinesterase (BChE) (Homo sapiens, UniProt P06276). Briefly: biochemical.
In assay [3] the target is T1, BACE-1 (Homo sapiens, UniProt P56817).
T1 construct: purchased Pan Vera; host or cells: baculovirus-expressed
Briefly: In vitro BACE-1 inhibitory FRET assay. The following applies: 60 min at 25 °C, pH 4.5.

Setting [4] is: mean ± SD, three independent experiments.

acetylcholinesterase (AChE), sequence (P22303 32-614): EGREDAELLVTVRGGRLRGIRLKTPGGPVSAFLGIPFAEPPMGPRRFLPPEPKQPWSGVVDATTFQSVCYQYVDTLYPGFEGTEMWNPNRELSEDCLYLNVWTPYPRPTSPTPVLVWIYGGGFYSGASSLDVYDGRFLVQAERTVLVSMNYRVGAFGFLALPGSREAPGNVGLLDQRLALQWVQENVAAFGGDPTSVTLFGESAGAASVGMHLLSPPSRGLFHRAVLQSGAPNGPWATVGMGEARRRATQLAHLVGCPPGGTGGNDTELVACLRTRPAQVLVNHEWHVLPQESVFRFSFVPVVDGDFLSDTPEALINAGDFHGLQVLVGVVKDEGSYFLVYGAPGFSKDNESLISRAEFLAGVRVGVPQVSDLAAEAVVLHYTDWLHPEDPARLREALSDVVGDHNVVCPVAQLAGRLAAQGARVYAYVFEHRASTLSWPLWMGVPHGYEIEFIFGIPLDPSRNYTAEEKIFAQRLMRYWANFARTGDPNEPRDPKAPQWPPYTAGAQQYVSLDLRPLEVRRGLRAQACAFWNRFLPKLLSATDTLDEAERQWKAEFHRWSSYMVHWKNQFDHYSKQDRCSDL
T1 sequence (P56817 46-501): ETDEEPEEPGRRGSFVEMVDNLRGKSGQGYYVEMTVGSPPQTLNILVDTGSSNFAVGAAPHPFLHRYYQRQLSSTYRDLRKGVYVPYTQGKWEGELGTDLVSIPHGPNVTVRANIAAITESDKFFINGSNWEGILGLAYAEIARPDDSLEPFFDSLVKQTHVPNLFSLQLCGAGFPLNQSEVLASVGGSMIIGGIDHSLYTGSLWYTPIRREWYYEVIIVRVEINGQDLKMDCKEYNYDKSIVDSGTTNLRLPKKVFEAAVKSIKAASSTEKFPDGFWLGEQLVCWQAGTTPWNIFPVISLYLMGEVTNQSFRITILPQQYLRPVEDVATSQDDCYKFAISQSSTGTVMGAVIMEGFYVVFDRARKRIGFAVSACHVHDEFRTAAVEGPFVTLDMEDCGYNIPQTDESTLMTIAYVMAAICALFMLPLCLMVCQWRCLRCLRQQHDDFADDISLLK
butyrylcholinesterase (BChE), sequence (P06276 29-602): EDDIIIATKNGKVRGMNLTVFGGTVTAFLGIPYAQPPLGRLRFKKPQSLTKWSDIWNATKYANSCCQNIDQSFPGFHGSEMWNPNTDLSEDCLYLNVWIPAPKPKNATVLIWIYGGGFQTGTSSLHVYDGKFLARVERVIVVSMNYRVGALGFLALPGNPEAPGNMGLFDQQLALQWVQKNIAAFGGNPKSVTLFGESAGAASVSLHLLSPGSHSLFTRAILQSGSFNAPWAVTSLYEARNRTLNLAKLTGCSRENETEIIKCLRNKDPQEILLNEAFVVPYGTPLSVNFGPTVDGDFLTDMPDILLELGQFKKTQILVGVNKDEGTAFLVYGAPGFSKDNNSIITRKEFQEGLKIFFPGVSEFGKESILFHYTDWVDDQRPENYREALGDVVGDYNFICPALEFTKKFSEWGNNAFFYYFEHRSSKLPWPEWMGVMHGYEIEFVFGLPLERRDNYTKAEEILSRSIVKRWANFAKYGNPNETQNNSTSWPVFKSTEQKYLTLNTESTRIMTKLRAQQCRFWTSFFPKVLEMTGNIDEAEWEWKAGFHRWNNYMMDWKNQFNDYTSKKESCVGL

`COc1cc(O)c(C(=O)/C=C/c2ccc(Cl)cc2)cc1I` [Compound 2o, (E)-3-(4-Chlorophenyl)-1-(2-hydroxy-5-iodo-4-methoxyphenyl)prop-2-en-1-one]: in assay [1], the “SI BChE/AChE” value was determined as 1.05. The 50% inhibitory concentration (IC50) in assay [1] (setting [4]) came to 11.1 ± 0.12 µM; in assay [2] (setting [4]), 11.6 ± 0.17 µM. The “SI AChE/BChE” value in assay [2] was determined as 0.95.
For `O=c1c(O)c(-c2ccc(Cl)cc2)oc2cc(F)c(I)cc12` [Compound 3c, 2-(4-C.hlorophenyl)-7-fluoro-3-hydroxy-6-iodo-4H-chromen-4-one], the “SI BChE/AChE” value in assay [1] is 10.8. Further, the IC50 in assay [1] (setting [4]) was determined as 3.45 ± 0.07 µM; in assay [2] (setting [4]), 37.51 ± 0.08 µM; in assay [3] it was 19.69 ± 0.05 µM. Moreover, the “SI AChE/BChE” value in assay [2] is reported as 0.09.
As to `O=c1c(O)c(-c2ccccc2)oc2cc(Br)c(I)cc12` [Compound 3i, 7-Bro.mo-3-hydroxy-6-iodo-2-phenyl-4H-chromen-4-one], in assay [1], the IC50 amounted to 9.96 ± 0.01 µM and the “SI BChE/AChE” value is 0.57. Also, in assay [2], the midpoint of inhibition, the IC50, lay at 5.76 ± 0.04 µM and the “SI AChE/BChE” value came out at 1.73.
`O=C(/C=C/c1ccc(F)cc1)c1cc(I)c(Cl)cc1O` [Compound 2f, (E)-1-(4-Chloro-2-hydroxy-5-iodophenyl)-3-(4-fluorophenyl)propenone]: the “SI BChE/AChE” value in assay [1] is listed as 1.87. The IC50 in assay [1] (setting [4]) came out at 9.57 ± 0.2 µM; in assay [2] (setting [4]), 17.86 ± 0.08 µM. Besides, the “SI AChE/BChE” value in assay [2] is recorded as 0.54.
Turning to `COc1cc(O)c(C(=O)/C=C/c2ccc(F)cc2)cc1I` [Compound 2n, (E)-3-(4-Fluorophenyl)-1-(2-hydroxy-5-iodo-4-methoxyphenyl)prop-2-en-1-one], the “SI BChE/AChE” value in assay [1] is given as 0.63. The results for the IC50 in assay [1] (setting [4]), in assay [2] (setting [4]) and in assay [3] were 9.38 ± 0.07 µM, 5.91 ± 0.05 µM and 25.07 ± 0.1 µM, respectively. Further, the “SI AChE/BChE” value in assay [2] is reported as 1.59.
With `O=c1c(O)c(-c2ccc(F)cc2)oc2cc(Br)c(I)cc12` [Compound 3j, 7-Bro.mo-2-(4-fluorophenyl)-3-hydroxy-6-iodo-4H-chromen-4-one], in assay [1], inhibition was half-maximal at 11.16 ± 0.01 µM (IC50) and the “SI BChE/AChE” value was 2.42. Further, in assay [2], the midpoint of inhibition, the IC50, lay at 27.01 ± 0.07 µM and the “SI AChE/BChE” value is 0.41.
Taken in the same sequence, the figures for `COc1ccc(-c2oc3cc(F)c(I)cc3c(=O)c2O)cc1` [Compound 3d, 7-Flu.oro-3-hydroxy-6-iodo-2-(4-methoxyphenyl)-4H-chromen-4-one] were 58.18 ± 0.03 µM, 0.50, 29.41 ± 0.04 µM and 1.98.
Taken in the same sequence, the figures for `COc1cc2oc(-c3ccccc3)c(O)c(=O)c2cc1I` [Compound 3m, 3-Hyd.roxy-6-iodo-7-methoxy-2-phenyl-4H-chromen-4-one] were 9.25 ± 0.09 µM, 1.14, 10.5 ± 0.02 µM and 0.88.
The matching figures for `O=c1c(O)c(-c2ccccc2)oc2cc(F)c(I)cc12` [Compound 3a, 7-Flu.oro-3-hydroxy-6-iodo-2-phenyl-4H-chromen-4-one]: 29.71 ± 0.01 µM, 0.91, 27.01 ± 0.06 µM and 1.10.
In the case of `O=C(/C=C/c1ccc(F)cc1)c1cc(I)c(F)cc1O` [Compound 2b, (E)-1-(4-Fluoro-2-hydroxy-5-iodophenyl)-3-(4-fluorophenyl)propenone], in assay [1], the IC50 was found to be 16.6 ± 0.03 µM and the “SI BChE/AChE” value worked out at 1.19. For the same compound, in assay [2], the IC50 was determined as 19.73 ± 0.05 µM and the “SI AChE/BChE” value turned out to be 0.84.
The matching figures for `O=c1c(O)c(-c2ccccc2)oc2cc(Cl)c(I)cc12` [Compound 3e, 7-Chl.oro-3-hydroxy-6-iodo-2-phenyl-4H-chromen-4-one]: 47.85 ± 0.04 µM, 0.14, 6.64 ± 0.03 µM and 7.21.
Regarding `COc1ccc(/C=C/C(=O)c2cc(I)c(Br)cc2O)cc1` [Compound 2l, (E)-1-(4-Bromo-2-hydroxy-5-iodophenyl)-3-(4-methoxyphenyl)propenone], in assay [1], the IC50 turned out to be 10.51 ± 0.03 µM and the “SI BChE/AChE” value came to 1.45. Further, in assay [2], the IC50 was 15.25 ± 0.01 µM and the “SI AChE/BChE” value turned out to be 0.69.
As to `O=c1c(O)c(-c2ccc(Cl)cc2)oc2cc(Cl)c(I)cc12` [Compound 3g, 7-Chl.oro-2-(4-chlorophenyl)-3-hydroxy-6-iodo-4H-chromen-4-one], in assay [1], 59.1 ± 0.05 µM corresponded to half-maximal inhibition (IC50) and the “SI BChE/AChE” value was determined as 0.13. Further, in assay [2], the IC50 came out at 7.69 ± 0.01 µM and the “SI AChE/BChE” value is 7.69.
Consider `O=C(/C=C/c1ccccc1)c1cc(I)c(Cl)cc1O` [Compound 2e, (E)-1-(4-Chloro-2-hydroxy-5-iodophenyl)-3-phenylpropenone], for which, in assay [1], the IC50 was determined as 10.64 ± 0.07 µM and the “SI BChE/AChE” value worked out at 2.37. This compound gave an IC50 in assay [2] of 25.2 ± 0.3 µM.
As for `O=c1c(O)c(-c2ccc(F)cc2)oc2cc(Cl)c(I)cc12` [Compound 3f, 7-Chl.oro-2-(4-fluorophenyl)-3-hydroxy-6-iodo-4H-chromen-4-one], in assay [1], the IC50 was 38.39 ± 0.02 µM and the “SI BChE/AChE” value was 0.47. Besides, in assay [2], the half-inhibitory concentration (IC50) was 18.17 ± 0.1 µM and the “SI AChE/BChE” value came out at 2.11.
As for `COc1ccc(/C=C/C(=O)c2cc(I)c(OC)cc2O)cc1` [Compound 2p, (E)-1-(2-Hydroxy-5-iodo-4-methoxyphenyl)-3-(4-methoxyphenyl)prop-2-en-1-one], the “SI BChE/AChE” value in assay [1] turned out to be 0.45. The figures for the IC50 in assay [1] (setting [4]), in assay [2] (setting [4]) and in assay [3] were 10.96 ± 0.03 µM, 4.89 ± 0.02 µM and 70.79 ± 0.2 µM, respectively. Moreover, in assay [2], the “SI AChE/BChE” value amounted to 2.24.
`O=c1c(O)c(-c2ccc(Cl)cc2)oc2cc(Br)c(I)cc12` [Compound 3k, 7-Bro.mo-2-(4-chlorophenyl)-3-hydroxy-6-iodo-4H-chromen-4-one]: in assay [1], inhibition was half-maximal at 29.24 ± 0.03 µM (IC50) and the “SI BChE/AChE” value worked out at 0.18. For the same compound, in assay [2], half-maximal inhibition (IC50) required 5.25 ± 0.01 µM and the “SI AChE/BChE” value was 5.57.
Consider `O=C(/C=C/c1ccccc1)c1cc(I)c(Br)cc1O` [Compound 2i, (E)-1-(4-Bromo-2-hydroxy-5-iodophenyl)-3-phenylpropenone], for which, in assay [1], half-maximal inhibition (IC50) required 58.14 ± 0.21 µM and the “SI BChE/AChE” value stood at 0.24. Further, in assay [2], the midpoint of inhibition, the IC50, lay at 14.11 ± 0.11 µM and the “SI AChE/BChE” value was determined as 4.12.
The matching figures for `COc1cc2oc(-c3ccc(F)cc3)c(O)c(=O)c2cc1I` [Compound 3n, 2-(4-F.luorophenyl)-3-hydroxy-6-iodo-7-methoxy-4H-chromen-4-one]: 6.15 ± 0.01 µM, 1.29, 7.93 ± 0.06 µM and 0.76.
For `COc1cc(O)c(C(=O)/C=C/c2ccccc2)cc1I` [Compound 2m, (E)-1-(2-Hydroxy-5-iodo-4-methoxyphenyl)-3-phenylprop-2-en-1-one], in assay [1], the “SI BChE/AChE” value is 0.95. Moreover, the results for the IC50 in assay [1] (setting [4]) and in assay [2] (setting [4]) were 10.01 ± 0.09 µM and 9.52 ± 0.03 µM, respectively. Further, in assay [2], the “SI AChE/BChE” value amounted to 1.05.
Taken in the same sequence, the figures for `O=C(/C=C/c1ccccc1)c1cc(I)c(F)cc1O` [Compound 2a, (E)-1-(4-Fluoro-2-hydroxy-5-iodophenyl)-3-phenylpropenone] were 0.72, 38.78 ± 0.01 µM, 28.06 ± 0.1 µM and 1.38.
Take `O=C(/C=C/c1ccc(Cl)cc1)c1cc(I)c(Cl)cc1O` [Compound 2g, (E)-1-(4-Chloro-2-hydroxy-5-iodophenyl)-3-(4-chlorophenyl)propenone]: the 50% inhibitory concentration (IC50) in assay [1] is 11 ± 0.06 µM; in assay [2], greater than 100 µM.
With `COc1ccc(/C=C/C(=O)c2cc(I)c(F)cc2O)cc1` [Compound 2d, (E)-1-(4-Fluoro-2-hydroxy-5-iodophenyl)-3-(4-methoxyphenyl)propenone], in assay [1], 11 ± 0.3 µM corresponded to half-maximal inhibition (IC50) and the “SI BChE/AChE” value is 0.78. In assay [2], the IC50 was 8.49 ± 0.05 µM and the “SI AChE/BChE” value was 1.29.
The matching figures for `COc1cc2oc(-c3ccc(Cl)cc3)c(O)c(=O)c2cc1I` [Compound 3o, 2-(4-C.hlorophenyl)-3-hydroxy-6-iodo-7-methoxy-4H-chromen-4-one]: 55.27 ± 0.04 µM, 0.24, 13.7 ± 0.14 µM and 4.03.
With `O=C(/C=C/c1ccc(Cl)cc1)c1cc(I)c(F)cc1O` [Compound 2c, (E)-3-(4-chlorophenyl)-1-(4-fluoro-2-hydroxy-5-iodophenyl)prop-2-en-1-one], the “SI BChE/AChE” value in assay [1] worked out at 1.39. Moreover, the IC50 in assay [1] (setting [4]) is 10.5 ± 0.08 µM; in assay [2] (setting [4]), 14.58 ± 0.14 µM. In assay [2], the “SI AChE/BChE” value came out at 0.72.
Regarding `O=C(/C=C/c1ccc(Cl)cc1)c1cc(I)c(Br)cc1O` [Compound 2k, (E)-1-(4-Bromo-2-hydroxy-5-iodophenyl)-3-(4-chlorophenyl)propenone], in assay [1], the IC50 was determined as 11.56 ± 0.05 µM and the “SI BChE/AChE” value is 0.90. Also, in assay [2], the IC50 was 10.44 ± 0.09 µM and the “SI AChE/BChE” value worked out at 1.11.
Turning to `COc1ccc(-c2oc3cc(Cl)c(I)cc3c(=O)c2O)cc1` [Compound 3h, 7-Chl.oro-3-hydroxy-6-iodo-2-(4-methoxyphenyl)-4H-chromen-4-one], in assay [1], the “SI BChE/AChE” value came out at 0.40. Besides, the IC50 turned out to be 14.33 ± 0.03 µM in assay [1] (setting [4]) and 5.72 ± 0.01 µM in assay [2] (setting [4]). Also, the “SI AChE/BChE” value in assay [2] was determined as 2.51.
